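Following 48 hours of exposure in 96-well plates, responses at five concentrations were used to interpolate endpoints linearly. GI50: concentration for 50% inhibition of growth. TGI: total growth inhibition.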
Assays:
Test in all cases: inhibition of tumour cell growth, NCI panel, 48 h
RXF 393 renal = tested on: RXF 393 renal
SR leukemia = tested on: SR leukemia
SNB-19 CNS = tested on: SNB-19 CNS
CAKI-1 renal = tested on: CAKI-1 renal
DU-145 prostate = tested on: DU-145 prostate
LOX IMVI melanoma = tested on: LOX IMVI melanoma
HL-60(TB) leukemia = tested on: HL-60(TB) leukemia
A498 renal = tested on: A498 renal
OVCAR-8 ovarian = tested on: OVCAR-8 ovarian
HOP-92 NSCLC = tested on: HOP-92 NSCLC

Compound	GI50 (RXF 393 renal) [µM]	TGI (RXF 393 renal) [µM]	GI50 (SR leukemia) [µM]	TGI (SR leukemia) [µM]	GI50 (SNB-19 CNS) [µM]	TGI (SNB-19 CNS) [µM]	GI50 (CAKI-1 renal) [µM]	TGI (CAKI-1 renal) [µM]	GI50 (DU-145 prostate) [µM]	TGI (DU-145 prostate) [µM]	GI50 (LOX IMVI melanoma) [µM]	TGI (LOX IMVI melanoma) [µM]	GI50 (HL-60(TB) leukemia) [µM]	TGI (HL-60(TB) leukemia) [µM]	GI50 (A498 renal) [µM]	TGI (A498 renal) [µM]	GI50 (OVCAR-8 ovarian) [µM]	TGI (OVCAR-8 ovarian) [µM]	GI50 (HOP-92 NSCLC) [µM]	TGI (HOP-92 NSCLC) [µM]
O=C(Nc1ccccc1C(F)(F)F)c1cccc(NC2=C(Cl)C(=O)N(Cc3ccccc3)C2=O)c1	3.13	12.3	0.447	4.35	34	> 100	21.1	> 67.2	8.19	44	5.87	36.9	31.8	> 100	11.3	37	42.3	> 72.1	26.3	> 100
Cc1ccc(C(=O)c2oc3ccc4c(C)cc(=O)oc4c3c2C)cc1	13.8	91	25.1	> 100	5.98	> 100	5.78	> 100	9.7	> 100	2.45	19.1	13.4	> 100	10.1	> 100	6.08	> 100	27.1	95.2
CN1CC(c2ccccc2)N(CCCCN2CC(c3ccccc3)N(C)CC2c2ccccc2)CC1c1ccccc1 (centres undefined)	–	71.1	–	> 100	–	> 100	–	> 100	–	> 100	–	39.1	–	> 100	–	> 100	–	> 100	–	> 100
COc1cc2nc(-c3ccc(C(F)(F)F)cc3)cc(OCCCN3CCOCC3)c2cc1OC	0.706	3.65	0.242	14.3	2.91	13.6	0.167	11.2	10.1	24	0.141	0.324	9.58	47.3	1.51	4.52	1.95	28.8	1	4.66
CCOC(=O)[C@@H](C)C[C@H](Cc1ccccc1)NC(=O)c1csc([C@@H](C[C@H](C(C)C)N(C)C(=O)[C@@H](NC(=O)[C@H]2C[C@H](O[Si](C)(C)C(C)(C)C)CCN2C)C(C)C)OC(C)=O)n1	0.159	0.481	0.0387	1.82	0.299	> 8.33	0.351	> 8.33	0.287	> 3.91	0.304	> 5.08	0.249	0.896	0.167	0.89	0.744	> 8.33	0.181	6.06
Oc1ccc(N=Nc2ccc(Cl)cc2)cc1	–	30.3	–	54.8	–	34.3	–	36.6	–	30.8	–	24.6	–	52.3	–	41	–	38.2	–	29.2
COc1cc2c(cc1OCc1ccccc1)N=C[C@@H]1C/C(=C/C(=O)NCCCN3C(=O)c4cccc5cccc(c45)C3=O)CN1C2=O	0.231	0.651	> 100	> 100	0.348	> 56.7	2.14	19.7	0.381	11.9	0.277	> 35.8	0.171	> 23.3	1.45	4.07	1.22	–	0.724	4.76
COc1cc(OC2OC(C)C(O)C(O)C2O)cc2oc(-c3ccc(O)cc3)c(CC=C(C)C)c(=O)c12 (centres undefined)	20.3	64.6	4.08	22.5	15.3	39.2	14.1	40.7	34.3	> 100	10.4	23	3.5	16.2	29.8	84.2	32.3	> 100	12.4	54.8
C=CC(=O)N1CCCC(n2nc(-c3ccc(Oc4ccccc4)cc3)c3c(N)ncnc32)C1 (centres undefined)	2.68	11.4	9.28	34.1	9.14	22.3	0.107	10.6	1.89	17.4	4.26	19.1	21.9	44.5	0.124	2.08	6.56	20.4	1.57	10.5

Source: PubChem BioAssay (NCI)
